The values that follow come from article PMC4666032, “KPT-330, a potent and selective exportin-1 (XPO-1) inhibitor, shows antitumor effects modulating the expression of cyclin D1 and survivin in prostate cancer models” (BMC Cancer, 2015).

Format in all cases: in vivo
The test system of one assay is PC3 xenografts. In words: PC3 xenograft in male nude mice. As to conditions: for apoptosis in tumors (TUNEL staining) / cell proliferation in tumors (Ki-67 staining): KPT-251 100 mg/kg or KPT-330 10 mg/kg, sectioned tumors, PC3 xenografts (Fig. 7); for tumor weight: PC3 xenografts, PO Mon/Wed/Fri, vs vehicle. The text has this: (§1) Male CD1 nude mice (Charles River, Milan, Italy) were maintained under the guidelines established by the University of L’Aquila, Medical School and Science and Technology School Board Regulations. Experiments on animals have been approved by your local IRB in compliance with the Italian government regulation n.116 January 27, 1992 for the use of laboratory animals which is line with ARRIVE guidelines. All mice received subcutaneous flank injections of 1 x 10^6 PC3, DU145 or 22v1 cells. Tumor growth was measured bi-weekly with a Vernier caliper (length x width). Tumor weight was calculated according to the formula: TW (mg) = tumor volume (mm^3) = d2 x D/2, where d and D are the shortest and longest diameters, respectively. The effects of the treatments were examined as previously described. Animals were sacrificed by carbon dioxide inhalation and tumors were subsequently removed surgically. A piece of tumor was frozen in liquid nitrogen for protein analysis and another piece was fixed in paraformaldehyde overnight for immunohistochemical analyses.
Mice were treated by oral gavage with either vehicle control (Pluronic F-68/PVP-K29/32), KPT330 or KPT251. Before tumor injection, animals were randomized into seven treatment groups as follows: Group 1: mice (10 animals) receiving 100 μl vehicle PO; Group 2: mice (10 animals) receiving 100 mg/kg KPT-251 every two days (Monday and Friday)/week PO; Group 3: mice (10 animals) receiving 30 mg/kg KPT-251 every two day/week PO; Group 4: mice (10 animals) receiving 10 mg/kg/day PO; Group 5: mice (10 animals) receiving 30 mg/kg KPT-330 every two days/week PO; Group 6: mice (10 animals) receiving 10 mg/kg KPT-330 every two days/week PO; Group 7: mice (10 animals) receiving 3 mg/kg/day KPT-330 PO. Treatments were started when tumor volumes reached approximately 80 mm^3 (Day 0) and were stopped after 28 days. The following parameters were used to quantify the antitumor effects upon different treatments: (1) tumor volume measured during and at the end of experiments, (2) tumor weight measured at the end of experiment, (3) complete response (CR) defined as the disappearance of the target lesion with respect to baseline, (4) partial response (PR) defined as a reduction of greater than 50 % of tumor volume with respect to baseline, (5) stable disease (SD) defined as a reduction of less than 50 % or an increase of less than 100 % of tumor volume with respect to baseline, (6) tumor progression (TP) defined as an increase of greater than […] of tumor volume with respect to baseline, (7) time to progression (TTP). In vivo, combinational studies were evaluated by CalcuSyn (Biosoft). For the calculation of CI, the values of cell kill for a fixed tumor volume were considered (determined by the log cell kill (LCK)). LCK was determined as LCKZ (TKC)/(3.3KTd), where Td represents the mean control group doubling time required to reach a fixed tumor volume, expressed in days, whereas T and C are the same values as described above.
To determine the effects of XPO-1 inhibition on prostate cancer growth in vivo, we used […] aggressive CRPC, PC3, DU145 and 22rv1, cell lines engrafted in male nude mice. Once tumors were established (80–100 mm3 in size), mice were divided into seven different groups (10 mice/group) and treated with varying doses of KPT-251 (10, 30, 100 mg/kg PO QoDx3) and KPT-330 (5, 10, 20 mg/kg PO QoDx3). Tumors were measured for 35 days. The effects of KPT-251 on tumor growth is shown in Fig. 5 and KPT-330 in Fig. 6. The mean tumor weight was calculated for each treatment group. […]

Another assay concerns DU145 xenografts. Kind of assay: DU145 xenograft in male nude mice. As to conditions: PO Mon/Wed/Fri, vs vehicle.
Description: as §1, with “Animals were sacrificed by carbon dioxide inhalation and tumors were subsequently removed surgically. A piece of tumor was frozen in liquid nitrogen for protein analysis and another piece was fixed in paraformaldehyde overnight for immunohistochemical analyses.” left out
(§2) Mice were treated by oral gavage with either vehicle control (Pluronic F-68/PVP-K29/32), KPT330 or KPT251. […] In vivo, combinational studies were evaluated by CalcuSyn (Biosoft). For the calculation of CI, the values of cell kill for a fixed tumor volume were considered (determined by the log cell kill (LCK)). LCK was determined as LCKZ (TKC)/(3.3KTd), where Td represents the mean control group doubling time required to reach a fixed tumor volume, expressed in days, whereas T and C are the same values as described above. […]

A further assay relates to 22rv1 xenografts. Kind of assay: 22rv1 xenograft in male nude mice. Particulars: PO Mon/Wed/Fri, vs vehicle.
Description: as §1, with “Animals were sacrificed by carbon dioxide inhalation and tumors were subsequently removed surgically. A piece of tumor was frozen in liquid nitrogen for protein analysis and another piece was fixed in paraformaldehyde overnight for immunohistochemical analyses.” left out
as §2

Turning to `FC(F)(F)c1cc(-c2ncn(/C=C\c3nnco3)n2)cc(C(F)(F)F)c1` [KPT-251], in the assay with PC3 xenografts, the “apoptosis in tumors (TUNEL staining)” value was “increased apoptosis”, the “cell proliferation in tumors (Ki-67 staining)” value is listed as “decreased cell proliferation” and the tumor weight entry was “reduce tumor weight in a dose-dependent manner”. The tumor weight result in the assay with DU145 xenografts is reported as “reduce tumor weight in a dose-dependent manner”. Also, the tumor weight entry with 22rv1 xenografts is on record as “reduce tumor weight in a dose-dependent manner”.
Take `O=C(/C=C\n1cnc(-c2cc(C(F)(F)F)cc(C(F)(F)F)c2)n1)NNc1cnccn1` [KPT-330]: in the assay with PC3 xenografts, the “apoptosis in tumors (TUNEL staining)” value is “increased apoptosis”, the “cell proliferation in tumors (Ki-67 staining)” value is given as “decreased cell proliferation” and the tumor weight entry was “reduce tumor weight in a dose-dependent manner”. The tumor weight result with DU145 xenografts is “reduce tumor weight in a dose-dependent manner”. The tumor weight entry with 22rv1 xenografts was “reduce tumor weight in a dose-dependent manner”.
